Source: patent US20150322120A1 (priority 2012, published 2015)
Positions of bridges follow the written chain, without caps; N, C: chain ends. Non-standard residues stand in square brackets, D forms with d. Residues, ends and D or L forms follow the SMILES beside them. Chains are numbered I, II in the order given. No end group written: not given here. *: point of attachment. Glutathionyl = N[C@@H](CCC(=O)N[C@@H](CS*)C(=O)NCC(=O)O)C(=O)O; Hyp = O=C(O)[C@@H]1C[C@@H](O)CN1

Assays:
[1] = biological target: rNav 1.7 (Rattus norvegicus, UniProt O08562); assay: cell-based; format: cell-based
Chain of rNav 1.7 (O08562 whole entry, looked up): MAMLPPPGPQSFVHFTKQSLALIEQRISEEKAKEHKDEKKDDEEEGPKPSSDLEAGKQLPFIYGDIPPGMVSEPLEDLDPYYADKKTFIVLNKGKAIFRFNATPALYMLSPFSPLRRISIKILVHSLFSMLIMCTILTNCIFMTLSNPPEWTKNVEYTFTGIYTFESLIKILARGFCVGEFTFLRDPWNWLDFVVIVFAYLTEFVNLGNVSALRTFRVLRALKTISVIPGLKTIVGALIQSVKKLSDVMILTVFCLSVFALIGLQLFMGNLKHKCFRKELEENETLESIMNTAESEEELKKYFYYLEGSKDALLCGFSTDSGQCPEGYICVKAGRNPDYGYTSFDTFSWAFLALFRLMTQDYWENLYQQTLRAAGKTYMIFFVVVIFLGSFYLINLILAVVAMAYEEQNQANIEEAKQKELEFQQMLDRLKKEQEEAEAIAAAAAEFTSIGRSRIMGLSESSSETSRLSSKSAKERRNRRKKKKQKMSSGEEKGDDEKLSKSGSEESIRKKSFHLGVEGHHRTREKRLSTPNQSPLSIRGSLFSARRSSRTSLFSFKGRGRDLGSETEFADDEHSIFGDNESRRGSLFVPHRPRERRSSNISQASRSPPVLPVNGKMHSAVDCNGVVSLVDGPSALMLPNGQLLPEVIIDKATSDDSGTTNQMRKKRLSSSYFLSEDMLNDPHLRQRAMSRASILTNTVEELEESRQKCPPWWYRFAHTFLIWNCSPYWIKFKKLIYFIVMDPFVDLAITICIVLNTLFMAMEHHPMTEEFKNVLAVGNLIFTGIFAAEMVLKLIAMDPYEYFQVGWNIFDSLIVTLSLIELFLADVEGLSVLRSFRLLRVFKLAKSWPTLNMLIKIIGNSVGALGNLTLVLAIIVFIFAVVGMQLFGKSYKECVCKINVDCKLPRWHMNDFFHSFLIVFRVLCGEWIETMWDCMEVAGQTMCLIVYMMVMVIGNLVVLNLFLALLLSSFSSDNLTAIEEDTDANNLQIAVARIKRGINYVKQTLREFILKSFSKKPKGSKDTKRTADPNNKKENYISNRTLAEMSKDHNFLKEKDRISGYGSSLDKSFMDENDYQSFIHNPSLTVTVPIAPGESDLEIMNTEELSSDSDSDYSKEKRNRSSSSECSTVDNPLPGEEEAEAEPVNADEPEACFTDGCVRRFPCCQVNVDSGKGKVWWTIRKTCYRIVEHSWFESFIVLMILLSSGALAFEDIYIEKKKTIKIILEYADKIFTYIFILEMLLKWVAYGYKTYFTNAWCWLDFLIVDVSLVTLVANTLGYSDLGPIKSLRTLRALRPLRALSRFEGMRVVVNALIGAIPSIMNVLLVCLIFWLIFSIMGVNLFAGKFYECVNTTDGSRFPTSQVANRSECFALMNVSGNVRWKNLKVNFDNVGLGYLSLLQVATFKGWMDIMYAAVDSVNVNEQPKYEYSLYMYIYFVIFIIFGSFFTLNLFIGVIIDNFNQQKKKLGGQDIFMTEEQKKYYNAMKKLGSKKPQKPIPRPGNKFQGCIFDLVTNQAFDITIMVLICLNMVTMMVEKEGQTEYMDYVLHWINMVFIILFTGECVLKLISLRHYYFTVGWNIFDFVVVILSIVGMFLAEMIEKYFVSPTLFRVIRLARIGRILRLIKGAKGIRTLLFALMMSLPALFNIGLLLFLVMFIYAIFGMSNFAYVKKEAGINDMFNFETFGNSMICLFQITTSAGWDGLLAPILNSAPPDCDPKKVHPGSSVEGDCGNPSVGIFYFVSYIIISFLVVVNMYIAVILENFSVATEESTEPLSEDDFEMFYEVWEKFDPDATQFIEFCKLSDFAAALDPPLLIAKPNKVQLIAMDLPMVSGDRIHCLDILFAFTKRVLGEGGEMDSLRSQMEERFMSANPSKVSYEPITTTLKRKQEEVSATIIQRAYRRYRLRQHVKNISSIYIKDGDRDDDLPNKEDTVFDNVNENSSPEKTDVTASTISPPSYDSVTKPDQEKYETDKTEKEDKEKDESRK

[2] = biological target: hNaV1.7 (Homo sapiens, UniProt Q15858); format: cell-based
Chain of hNaV1.7 (Q15858 whole entry, looked up): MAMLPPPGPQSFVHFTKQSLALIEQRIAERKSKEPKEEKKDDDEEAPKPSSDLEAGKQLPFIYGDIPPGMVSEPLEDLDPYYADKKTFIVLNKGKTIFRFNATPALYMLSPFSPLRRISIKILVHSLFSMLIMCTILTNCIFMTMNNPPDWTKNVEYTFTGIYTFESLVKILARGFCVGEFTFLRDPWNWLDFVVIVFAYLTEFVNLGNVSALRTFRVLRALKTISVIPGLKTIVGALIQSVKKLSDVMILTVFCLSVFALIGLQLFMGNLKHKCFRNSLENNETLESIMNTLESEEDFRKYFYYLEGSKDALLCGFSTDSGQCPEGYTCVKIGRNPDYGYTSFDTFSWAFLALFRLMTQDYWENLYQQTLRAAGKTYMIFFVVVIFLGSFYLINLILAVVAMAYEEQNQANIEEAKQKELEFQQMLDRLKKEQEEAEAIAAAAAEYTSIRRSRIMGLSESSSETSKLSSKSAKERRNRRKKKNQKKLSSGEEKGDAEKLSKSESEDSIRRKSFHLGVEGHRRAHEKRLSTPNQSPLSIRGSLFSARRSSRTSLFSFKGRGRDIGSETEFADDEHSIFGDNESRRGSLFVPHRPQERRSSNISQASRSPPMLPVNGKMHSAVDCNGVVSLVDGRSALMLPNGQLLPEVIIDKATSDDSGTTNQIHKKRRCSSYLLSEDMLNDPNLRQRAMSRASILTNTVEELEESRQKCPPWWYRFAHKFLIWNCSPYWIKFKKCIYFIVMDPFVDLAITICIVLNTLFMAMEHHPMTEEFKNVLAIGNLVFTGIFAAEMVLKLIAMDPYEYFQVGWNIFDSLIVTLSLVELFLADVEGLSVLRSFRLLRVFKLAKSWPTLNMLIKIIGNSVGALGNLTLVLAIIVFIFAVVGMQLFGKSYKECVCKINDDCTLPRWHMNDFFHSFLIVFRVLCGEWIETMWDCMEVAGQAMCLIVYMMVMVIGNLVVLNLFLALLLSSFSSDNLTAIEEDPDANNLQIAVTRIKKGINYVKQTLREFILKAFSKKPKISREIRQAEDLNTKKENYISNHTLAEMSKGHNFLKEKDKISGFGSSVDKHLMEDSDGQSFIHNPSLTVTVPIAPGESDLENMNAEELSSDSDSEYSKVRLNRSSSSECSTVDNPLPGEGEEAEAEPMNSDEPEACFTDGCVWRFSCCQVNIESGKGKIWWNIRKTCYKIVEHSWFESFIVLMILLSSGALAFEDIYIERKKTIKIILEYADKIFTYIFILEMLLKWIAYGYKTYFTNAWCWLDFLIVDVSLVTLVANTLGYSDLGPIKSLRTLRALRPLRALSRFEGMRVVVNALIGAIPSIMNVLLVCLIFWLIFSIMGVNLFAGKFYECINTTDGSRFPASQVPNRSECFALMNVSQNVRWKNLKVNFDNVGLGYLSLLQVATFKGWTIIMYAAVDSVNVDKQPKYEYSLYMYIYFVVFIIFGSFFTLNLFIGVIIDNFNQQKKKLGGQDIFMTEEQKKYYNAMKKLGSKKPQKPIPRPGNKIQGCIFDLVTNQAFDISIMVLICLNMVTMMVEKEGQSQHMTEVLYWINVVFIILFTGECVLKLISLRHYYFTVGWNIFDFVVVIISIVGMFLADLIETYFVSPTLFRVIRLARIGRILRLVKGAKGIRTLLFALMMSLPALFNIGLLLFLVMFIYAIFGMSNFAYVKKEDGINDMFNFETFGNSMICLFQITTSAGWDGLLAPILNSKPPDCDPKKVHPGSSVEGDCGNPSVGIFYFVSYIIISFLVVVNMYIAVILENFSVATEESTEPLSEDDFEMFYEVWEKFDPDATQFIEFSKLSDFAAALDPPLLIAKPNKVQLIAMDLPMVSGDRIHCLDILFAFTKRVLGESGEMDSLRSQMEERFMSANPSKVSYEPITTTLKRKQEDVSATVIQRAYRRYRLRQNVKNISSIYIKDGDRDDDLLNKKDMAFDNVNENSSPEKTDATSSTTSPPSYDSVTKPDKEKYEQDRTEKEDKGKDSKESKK

[3] = read-out: rNav 1.7 % block peptide concentration

CC(C)C[C@@H]1NC(=O)[C@H](CCCCN)NC(=O)CNC(=O)[C@@H]2CSSC[C@@H]3NC(=O)[C@H](Cc4ccccc4)NC(=O)CNC(=O)[C@H](CO)NC(=O)[C@H](CSSC[C@H](NC(=O)[C@H](Cc4c[nH]c5ccccc45)NC(=O)CN)C(=O)NCC(=O)N[C@@H](CC(=O)O)C(=O)N4C[C@H](O)C[C@H]4C(=O)NCC(=O)N[C@@H](C)C(=O)N[C@@H]([C@@H](C)O)C(=O)N2)NC(=O)[C@H](CSSC[C@@H](C(=O)N[C@@H](CCCCN)C(=O)N[C@@H](CC(=O)O)C(=O)N[C@@H](CCCCN)C(=O)N[C@@H](CO)C(=O)N[C@@H](CO)C(=O)N[C@@H](C)C(=O)O)NC(=O)[C@H]([C@@H](C)O)NC(=O)CNC(=O)[C@H]([C@@H](C)O)NC(=O)[C@H](Cc2ccc(O)cc2)NC(=O)[C@H](CSSC[C@H](NC(=O)CC[C@H](N)C(=O)O)C(=O)NCC(=O)O)NC(=O)[C@H](CC(=O)O)NC3=O)NC(=O)[C@H](Cc2ccc(O)cc2)NC(=O)[C@H](CC(C)C)NC(=O)[C@H](CCCNC(=N)N)NC1=O [C.geeo1[K27G]]
inhibition at 33 µM [1, 3]: 60%

CC[C@@H]1NC(=O)[C@H](CC(=O)O)NC(=O)[C@@H]2CSSC[C@@H]3NC(=O)[C@H]([C@@H](C)O)NC(=O)[C@H](C)NC(=O)CNC(=O)[C@@H]4C[C@@H](O)CN4C(=O)[C@H](CC(=O)O)NC(=O)CNC(=O)[C@@H](NC(=O)[C@H](Cc4c[nH]c5ccccc45)NC(=O)CN)CSSC[C@H](NC(=O)[C@H](CSSC[C@@H](C(=O)N[C@@H](CCCCN)C(=O)N[C@@H](CC(=O)O)C(=O)N[C@@H](CCCCN)C(=O)N[C@@H](CO)C(=O)N[C@@H](CO)C(=O)N[C@@H](C)C(=O)O)NC(=O)[C@H]([C@@H](C)O)NC(=O)[C@H](CCCCN)NC(=O)[C@H]([C@@H](C)O)NC(=O)[C@H](Cc4ccc(O)cc4)NC1=O)NC(=O)[C@H](Cc1ccc(O)cc1)NC(=O)[C@H](CC(C)C)NC(=O)[C@H](CCCNC(=N)N)NC(=O)[C@H](CC(C)C)NC(=O)[C@H](CCCCN)NC(=O)CNC3=O)C(=O)N[C@@H](CO)C(=O)NCC(=O)N[C@@H](Cc1ccccc1)C(=O)N2 [C.geo1[C24Abu]]
inhibition at 33 µM [1, 3]: 20%

CC(=O)NCSC[C@@H]1NC(=O)[C@H](CC(=O)O)NC(=O)[C@@H]2CSSC[C@@H]3NC(=O)[C@H]([C@@H](C)O)NC(=O)[C@H](C)NC(=O)CNC(=O)[C@@H]4C[C@@H](O)CN4C(=O)[C@H](CC(=O)O)NC(=O)CNC(=O)[C@@H](NC(=O)[C@H](Cc4c[nH]c5ccccc45)NC(=O)CN)CSSC[C@H](NC(=O)[C@H](CSSC[C@@H](C(=O)N[C@@H](CCCCN)C(=O)N[C@@H](CC(=O)O)C(=O)N[C@@H](CCCCN)C(=O)N[C@@H](CO)C(=O)N[C@@H](CO)C(=O)N[C@@H](C)C(=O)O)NC(=O)[C@H]([C@@H](C)O)NC(=O)[C@H](CCCCN)NC(=O)[C@H]([C@@H](C)O)NC(=O)[C@H](Cc4ccc(O)cc4)NC1=O)NC(=O)[C@H](Cc1ccc(O)cc1)NC(=O)[C@H](CC(C)C)NC(=O)[C@H](CCCNC(=N)N)NC(=O)[C@H](CC(C)C)NC(=O)[C@H](CCCCN)NC(=O)CNC3=O)C(=O)N[C@@H](CO)C(=O)NCC(=O)N[C@@H](Cc1ccccc1)C(=O)N2 [C.geo1[C24Cys(Acm)]]
inhibition at 33 µM [1, 3]: 70%

CC(C)C[C@@H]1NC(=O)[C@H](CCCCN)NC(=O)CNC(=O)[C@@H]2CSSC[C@@H]3NC(=O)[C@H](Cc4ccccc4)NC(=O)CNC(=O)[C@H](CO)NC(=O)[C@H](CSSC[C@H](NC(=O)[C@H](Cc4c[nH]c5ccccc45)NC(=O)CN)C(=O)NCC(=O)N[C@@H](CC(=O)O)C(=O)N4C[C@H](O)C[C@H]4C(=O)NCC(=O)N[C@@H](C)C(=O)N[C@@H]([C@@H](C)O)C(=O)N2)NC(=O)[C@H](CSSC[C@@H](C(=O)N[C@@H](CCCCN)C(=O)N[C@@H](CC(=O)O)C(=O)N[C@@H](CCCCN)C(=O)N[C@@H](CO)C(=O)N[C@@H](CO)C(=O)N[C@@H](C)C(=O)O)NC(=O)[C@H]([C@@H](C)O)NC(=O)[C@H](CCCCN)NC(=O)[C@H]([C@@H](C)O)NC(=O)[C@H](Cc2ccc(O)cc2)NC(=O)[C@H](CCC(=O)O)NC(=O)[C@H](CC(=O)O)NC3=O)NC(=O)[C@H](Cc2ccc(O)cc2)NC(=O)[C@H](CC(C)C)NC(=O)[C@H](CCCNC(=N)N)NC1=O [C.geo1[C24E]] (H-GWCGD[Hyp]GATCGKLRLYCCSGFCDEYTKTCKDKSSA-OH; disulfide 3-18, 10-22, 17-29)
inhibition at 33 µM [1, 3]: 15%

CC(C)C[C@@H]1NC(=O)[C@H](CCCCN)NC(=O)CNC(=O)[C@@H]2CSSC[C@@H]3NC(=O)[C@H](Cc4ccccc4)NC(=O)CNC(=O)[C@H](CO)NC(=O)[C@H](CSSC[C@H](NC(=O)[C@H](Cc4c[nH]c5ccccc45)NC(=O)CN)C(=O)NCC(=O)N[C@@H](CC(=O)O)C(=O)N4C[C@H](O)C[C@H]4C(=O)NCC(=O)N[C@@H](C)C(=O)N[C@@H]([C@@H](C)O)C(=O)N2)NC(=O)[C@H](CSSC[C@@H](C(=O)N[C@@H](CCCCN)C(=O)N[C@@H](CC(=O)O)C(=O)N[C@@H](CCCCN)C(=O)N[C@@H](CO)C(=O)N[C@@H](CO)C(=O)N[C@@H](C)C(=O)O)NC(=O)[C@H]([C@@H](C)O)NC(=O)[C@H](CCCCN)NC(=O)[C@H]([C@@H](C)O)NC(=O)[C@H](Cc2ccc(O)cc2)NC(=O)[C@H](CCCCN)NC(=O)[C@H](CC(=O)O)NC3=O)NC(=O)[C@H](Cc2ccc(O)cc2)NC(=O)[C@H](CC(C)C)NC(=O)[C@H](CCCNC(=N)N)NC1=O [C.geo1[C24K]] (H-GWCGD[Hyp]GATCGKLRLYCCSGFCDKYTKTCKDKSSA-OH; disulfide 3-18, 10-22, 17-29)
inhibition at 33 µM [1, 3]: 20%

CC(C)C[C@@H]1NC(=O)[C@H](CCCCN)NC(=O)CNC(=O)[C@@H]2CSSC[C@@H]3NC(=O)[C@H](Cc4ccccc4)NC(=O)CNC(=O)[C@H](CO)NC(=O)[C@H](CSSC[C@H](NC(=O)[C@H](Cc4c[nH]c5ccccc45)NC(=O)CN)C(=O)NCC(=O)N[C@@H](CC(=O)O)C(=O)N4C[C@H](O)C[C@H]4C(=O)NCC(=O)N[C@@H](C)C(=O)N[C@@H]([C@@H](C)O)C(=O)N2)NC(=O)[C@H](CSSC[C@@H](C(=O)N[C@@H](CCCCN)C(=O)N[C@@H](CC(=O)O)C(=O)N[C@@H](CCCCN)C(=O)N[C@@H](CO)C(=O)N[C@@H](CO)C(=O)N[C@@H](C)C(=O)O)NC(=O)[C@H]([C@@H](C)O)NC(=O)[C@H](CCCCN)NC(=O)[C@H]([C@@H](C)O)NC(=O)[C@H](Cc2ccc(O)cc2)NC(=O)[C@H](CO)NC(=O)[C@H](CC(=O)O)NC3=O)NC(=O)[C@H](Cc2ccc(O)cc2)NC(=O)[C@H](CC(C)C)NC(=O)[C@H](CCCNC(=N)N)NC1=O [C.geo1[C24S]] (H-GWCGD[Hyp]GATCGKLRLYCCSGFCDSYTKTCKDKSSA-OH; disulfide 3-18, 10-22, 17-29)
inhibition at 33 µM [1, 3]: 20%

CC(C)C[C@@H]1NC(=O)[C@H](CCCCN)NC(=O)CNC(=O)[C@@H]2CSSC[C@@H]3NC(=O)[C@H](Cc4ccccc4)NC(=O)CNC(=O)[C@H](CO)NC(=O)[C@H](CSSC[C@H](NC(=O)[C@H](Cc4c[nH]c5ccccc45)NC(=O)CN)C(=O)NCC(=O)N[C@@H](CC(=O)O)C(=O)N[C@@H](C)C(=O)NCC(=O)N[C@@H](C)C(=O)N[C@@H]([C@@H](C)O)C(=O)N2)NC(=O)[C@H](CSSC[C@@H](C(=O)N[C@@H](CCCCN)C(=O)N[C@@H](CC(=O)O)C(=O)N[C@@H](CCCCN)C(=O)N[C@@H](CO)C(=O)N[C@@H](CO)C(=O)N[C@@H](C)C(=O)O)NC(=O)[C@H]([C@@H](C)O)NC(=O)[C@H](CCCCN)NC(=O)[C@H]([C@@H](C)O)NC(=O)[C@H](Cc2ccc(O)cc2)NC(=O)[C@H](CSSC[C@H](NC(=O)CC[C@H](N)C(=O)O)C(=O)NCC(=O)O)NC(=O)[C@H](CC(=O)O)NC3=O)NC(=O)[C@H](Cc2ccc(O)cc2)NC(=O)[C@H](CC(C)C)NC(=O)[C@H](CCCNC(=N)N)NC1=O [C.geo1[O6A]] (H-GWCGDAGATCGKLRLYCCSGFCDC(Glutathionyl)YTKTCKDKSSA-OH; disulfide 3-18, 10-22, 17-29)
inhibition at 33 µM [1, 3]: 60%

CVGRDSKCGPPPCCMGMTCNYERVRKCT [SEQ ID 025]
activity against hNav1.7 [2]: not active
activity against rNav1.7 [1]: not active

DWCGDAGDACGTLKLRCCSGLCNQYSGTCTG [C. geo2]
% block of hNaV1.7 [2]: 69%

GWCGDOGATCGKLRLYCCSGFCD(Abu)YTKTCKDKS_A [C. geo1[C24Abu,des-Ser34]]
% block of NaV1.7 from rat [1]: 20%
reversibility of NaV1.7 block [1]: quickly reversible

I: GWCGD[Hyp]GATCGKLRLYCCSGFCDCYTKTCKDKSSA / II: GWCGD[Hyp]GATCGKLRLYCCSGFCDCYTKTCKDKSSA (disulfide I:3-I:18, I:10-I:22, I:17-I:29, I:24-II:24, II:3-II:18, II:10-II:22, II:17-II:29) [C.geo1[dimer]]
inhibition at 30 µM [1, 3]: 70%
